According to PMC4078008, “Exploring metabolic engineering design principles for the photosynthetic production of lactic acid by Synechocystis sp. PCC6803” (Biotechnology for Biofuels, 2014):

Assays:
[1] = target: T1, PK-F of E. coli (Escherichia coli, UniProt P0AD61); test: LDH-coupled PK assay in cell-free extract with and without FBP; type: biochemical; conditions: activator; 3 mM FBP, 50 mM Tris-HCl pH 7.6, 5 mM MgCl2, 100 mM KCl, 0.6 mM ADP, 5 mM PEP, 30 °C
T1 construct: gene pykF; codon-optimized gene expressed in Synechocystis sp; PCC6803 (strain SYW004); cell-free extract

[2] = target: T2, L-LDH of L. lactis (LlLDH) (Lactococcus cremoris, UniProt A2RKA4); test: NAD(P)H consumption at […] nm in cell-free extract; type: biochemical; conditions: 100 mM Tris-HCl pH 7.2, 2.5 mM MgCl2, 3 mM FBP, 300 uM NADH, 30 mM pyruvate, 30 °C
T2 construct: full-length, codon-optimized gene expressed in Synechocystis sp; PCC6803; cell-free extract
T2 sequence (A2RKA4 1-325): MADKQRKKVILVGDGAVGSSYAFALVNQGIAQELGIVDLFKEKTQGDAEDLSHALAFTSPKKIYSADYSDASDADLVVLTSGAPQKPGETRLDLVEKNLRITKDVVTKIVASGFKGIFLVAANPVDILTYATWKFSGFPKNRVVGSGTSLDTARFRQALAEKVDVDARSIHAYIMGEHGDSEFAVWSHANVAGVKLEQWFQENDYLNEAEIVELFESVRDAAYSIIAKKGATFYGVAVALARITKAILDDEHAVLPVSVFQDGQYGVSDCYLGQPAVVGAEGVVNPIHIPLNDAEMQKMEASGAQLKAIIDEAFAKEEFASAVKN

T1 sequence (P0AD61 whole entry): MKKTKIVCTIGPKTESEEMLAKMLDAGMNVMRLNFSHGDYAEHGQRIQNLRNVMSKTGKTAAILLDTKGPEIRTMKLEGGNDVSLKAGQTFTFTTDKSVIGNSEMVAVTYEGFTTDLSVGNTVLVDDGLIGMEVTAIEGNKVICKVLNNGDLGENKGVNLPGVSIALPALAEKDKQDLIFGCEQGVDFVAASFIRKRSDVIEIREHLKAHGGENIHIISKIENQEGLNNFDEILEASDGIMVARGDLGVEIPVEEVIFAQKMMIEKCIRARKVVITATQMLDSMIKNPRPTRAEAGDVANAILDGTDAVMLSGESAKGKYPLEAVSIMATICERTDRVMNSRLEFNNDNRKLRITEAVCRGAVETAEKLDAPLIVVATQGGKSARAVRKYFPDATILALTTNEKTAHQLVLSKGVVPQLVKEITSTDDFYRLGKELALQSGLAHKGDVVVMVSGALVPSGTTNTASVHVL

Structure (SMILES)	relative activity with and without FBP [1]	relative activity [2]
O=P(O)(O)OC[C@H]1OC(O)(COP(=O)(O)O)[C@@H](O)[C@@H]1O (some centres unmarked) [FBP]	The activity assays confirmed the FBP dependency of the selected PK-F enzymes	
NC(=O)C1=CN([C@@H]2O[C@H](COP(=O)(O)OP(=O)(O)OC[C@H]3O[C@@H](n4cnc5c(N)ncnc54)[C@H](O)[C@@H]3O)[C@@H](O)[C@H]2O)C=CC1 [NADH]		Both show similar activity for NADH (Figure 5C) and similar expression levels
